This assay has as its target T1, Recombinant human BRD4 containing dual bromodomains (BRD4-BD12 (1-477)) (Homo sapiens, UniProt O60885).
T1 construct: Recombinant human BRD4 containing dual bromodomains (BRD4-BD12 (1-477)); made in house; host or cells: E. coli BL21-CodonPlus (DE3), modified pET vector
Nature of the assay: BRD4 Alphascreen binding assay. The procedure, abridged: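 His-tagged human BRD4 tandem bromodomains (1-477, E. coli) incubated 1 h at room temperature with biotinylated tetra-acetylated H4 (1-21) peptide and compound in HEPES pH 7.5 buffer with 2 mM DTT. AlphaScreen signal read 30 min after adding beads (7.5 μg/ml); IC50 from four-parameter fit after normalization to controls.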
On to `Cc1noc(C)c1-c1cnc2c(c1)c(-c1ccc(C(N)=O)cc1)cn2C(c1ccccn1)C1CCCC1` (stereo not drawn) [P-0020, 4-(1-(cyclopentyl(pyridin-2-yl)methyl)-5-(3,5-dimethylisoxazol-4-yl)-1H-pyrrolo[2,3-b]pyridin-3-yl)benzamide], for which the IC50 fell in the range of 1 to 8 µM.
To `CNC(=O)c1ccc(-c2cn(C(c3ccccn3)C3CCCC3)c3ncc(-c4c(C)noc4C)cc23)cc1` (stereo not drawn) [P-0021, 4-(1-(cyclopentyl(pyridin-2-yl)methyl)-5-(3,5-dimethylisoxazol-4-yl)-1H-pyrrolo[2,3-b]pyridin-3-yl)-N-methylbenzamide] belongs 1 to 8 µM.
To `Cc1noc(C)c1-c1cnc2c(c1)c(-c1ccc(C#N)cc1)cn2C(c1ccccn1)C1CCCC1` (stereo not drawn) [P-0022, 4-(1-(cyclopentyl(pyridin-2-yl)methyl)-5-(3,5-dimethylisoxazol-4-yl)-1H-pyrrolo[2,3-b]pyridin-3-yl)benzonitrile] belongs 8 to 1000 µM; to `Cc1noc(C)c1-c1cnc2c(c1)c(-c1ccc3c(c1)CNC3=O)cn2C(c1ccccn1)C1CCCC1` (stereo not drawn) [P-0023, 5-(1-(cyclopentyl(pyridin-2-yl)methyl)-5-(3,5-dimethylisoxazol-4-yl)-1H-pyrrolo[2,3-b]pyridin-3-yl)isoindolin-1-one], 1 to 8 µM.
As for `Cc1noc(C)c1-c1cnc2c(c1)c(-c1ccc(-c3nn[nH]n3)cc1)cn2C(c1ccccn1)C1CCCC1` (stereo not drawn) [P-0024, 4-(3-(4-(2H-tetrazol-5-yl)phenyl)-1-(cyclopentyl(pyridin-2-yl)methyl)-1H-pyrrolo[2,3-b]pyridin-5-yl)-3,5-dimethylisoxazole], the figure is 8 to 1000 µM; as for `Cc1noc(C)c1-c1cnc2c(c1)c(-c1ccc(C(=O)O)c(F)c1)cn2C(c1ccccn1)C1CCCC1` (stereo not drawn) [P-0025, 4-(1-(cyclopentyl(pyridin-2-yl)methyl)-5-(3,5-dimethylisoxazol-4-yl)-1H-pyrrolo[2,3-b]pyridin-3-yl)-2-fluorobenzoic acid], 1 to 8 µM.
As to `Cc1noc(C)c1-c1cnc2c(c1)c(-c1ccc(C(=O)O)nc1)cn2C(c1ccccn1)C1CCCC1` (stereo not drawn) [P-0026, 5-(1-(cyclopentyl(pyridin-2-yl)methyl)-5-(3,5-dimethylisoxazol-4-yl)-1H-pyrrolo[2,3-b]pyridin-3-yl)picolinic acid], the IC50 was 1 to 8 µM.
Turning to `Cc1cc(-c2c(C(F)(F)F)n([C@@H](C)c3ccccn3)c3cc(-c4c(C)noc4C)cnc23)ccc1C(=O)O` [P-0243, (S)-4-(6-(3,5-dimethylisoxazol-4-yl)-1-(1-(pyridin-2-yl)ethyl)-2-(trifluoromethyl)-1H-pyrrolo[3,2-b]pyridin-3-yl)-2-methylbenzoic acid], the IC50 lay within 1 to 8 µM.
As to `COc1cc(-c2c(C(F)(F)F)n([C@@H](C)c3ccccn3)c3cc(-c4c(C)noc4C)cnc23)ccc1C(=O)O` [P-0244, (S)-4-(6-(3,5-dimethylisoxazol-4-yl)-1-(1-(pyridin-2-yl)ethyl)-2-(trifluoromethyl)-1H-pyrrolo[3,2-b]pyridin-3-yl)-2-methoxybenzoic acid], the IC50 was 1 to 8 µM.
To `Cc1noc(C)c1-c1cnc2c(-c3cccc(C(=O)O)c3F)c(C(F)(F)F)n([C@@H](C)c3ccccn3)c2c1` [P-0245, (S)-3-(6-(3,5-dimethylisoxazol-4-yl)-1-(1-(pyridin-2-yl)ethyl)-2-(trifluoromethyl)-1H-pyrrolo[3,2-b]pyridin-3-yl)-2-fluorobenzoic acid] belongs 8 to 1000 µM; to `Cc1noc(C)c1-c1cnc2c(-c3cccc(C(=O)O)c3C)c(C(F)(F)F)n([C@@H](C)c3ccccn3)c2c1` [P-0246, (S)-3-(6-(3,5-dimethylisoxazol-4-yl)-1-(1-(pyridin-2-yl)ethyl)-2-(trifluoromethyl)-1H-pyrrolo[3,2-b]pyridin-3-yl)-2-methylbenzoic acid], 8 to 1000 µM; to `Cc1noc(C)c1-c1cnc2c(-c3cccc(C(=O)O)c3Cl)c(C(F)(F)F)n([C@@H](C)c3ccccn3)c2c1` [P-0247, (S)-2-chloro-3-(6-(3,5-dimethylisoxazol-4-yl)-1-(1-(pyridin-2-yl)ethyl)-2-(trifluoromethyl)-1H-pyrrolo[3,2-b]pyridin-3-yl)benzoic acid], 8 to 1000 µM.
As for `CCOC(=O)c1cc(-c2cn(-c3ccc(F)cc3F)c3ncc(-c4c(C)noc4C)cc23)c(OCC)cc1O` [P-0248, ethyl 5-(1-(2,4-difluorophenyl)-5-(3,5-dimethylisoxazol-4-yl)-1H-pyrrolo[2,3-b]pyridin-3-yl)-4-ethoxy-2-hydroxybenzoate], the figure is 8 to 1000 µM; as for `CCOc1cc(O)c(C(=O)O)cc1-c1cn(-c2ccc(F)cc2F)c2ncc(-c3c(C)noc3C)cc12` [P-0249, 5-(1-(2,4-difluorophenyl)-5-(3,5-dimethylisoxazol-4-yl)-1H-pyrrolo[2,3-b]pyridin-3-yl)-4-ethoxy-2-hydroxybenzoic acid], 8 to 1000 µM.
As for `CCOc1cc(OC)c(C(=O)O)cc1-c1cn(-c2ccc(F)cc2F)c2ncc(-c3c(C)noc3C)cc12` [P-0250, 5-(1-(2,4-difluorophenyl)-5-(3,5-dimethylisoxazol-4-yl)-1H-pyrrolo[2,3-b]pyridin-3-yl)-4-ethoxy-2-methoxybenzoic acid], the figure is 8 to 1000 µM.
With `Cc1noc(C)c1-c1cnc2c(c1)c(-c1ccc(C(=O)O)cc1OC(F)(F)F)cn2-c1cnccc1F` [P-0251, 4-(5-(3,5-dimethylisoxazol-4-yl)-1-(4-fluoropyridin-3-yl)-1H-pyrrolo[2,3-b]pyridin-3-yl)-3-(trifluoromethoxy)benzoic acid], the IC50 was 8 to 1000 µM.
As for `Cc1noc(C)c1-c1cnc2c(c1)c(-c1ccc(C(=O)O)cc1OC(F)(F)F)cn2-c1cnccc1O` [P-0252, 4-(5-(3,5-dimethylisoxazol-4-yl)-1-(4-hydroxypyridin-3-yl)-1H-pyrrolo[2,3-b]pyridin-3-yl)-3-(trifluoromethoxy)benzoic acid], the figure is 8 to 1000 µM; as for `Cc1noc(C)c1-c1cnc2c(c1)c(-c1ccc(C(=O)O)cc1OC(F)(F)F)cn2-c1ccncc1Cl` [P-0253, 4-(1-(3-chloropyridin-4-yl)-5-(3,5-dimethylisoxazol-4-yl)-1H-pyrrolo[2,3-b]pyridin-3-yl)-3-(trifluoromethoxy)benzoic acid], 8 to 1000 µM.
With `Cc1noc(C)c1-c1cnc2c(c1)c(-c1ccc(C(=O)O)cc1OC(F)(F)F)cn2-c1c(F)cccc1C#N` [P-0254, 4-(1-(2-cyano-6-fluorophenyl)-5-(3,5-dimethylisoxazol-4-yl)-1H-pyrrolo[2,3-b]pyridin-3-yl)-3-(trifluoromethoxy)benzoic acid], the IC50 lay within 1 to 8 µM.
As for `COc1cc(C(=O)O)cc(C)c1-c1cn(-c2ccccc2)c2ncc(-c3c(C)noc3C)cc12` [P-0255, 4-(5-(3,5-dimethylisoxazol-4-yl)-1-phenyl-1H-pyrrolo[2,3-b]pyridin-3-yl)-3-methoxy-5-methylbenzoic acid], the figure is 1 to 8 µM; as for `Cc1noc(C)c1-c1cnc2c(-c3ccc(C(=O)O)cc3C#N)c(C(F)(F)F)n([C@@H](C)c3ccccn3)c2c1` [P-0256, (S)-3-cyano-4-(6-(3,5-dimethylisoxazol-4-yl)-1-(1-(pyridin-2-yl)ethyl)-2-(trifluoromethyl)-1H-pyrrolo[3,2-b]pyridin-3-yl)benzoic acid], 8 to 1000 µM.
